Consider seven molecules from patent US6407075B1, “Fatty acid treatment” (priority 1996, dated 2002).

The test system of series [1] is toxic side effects of chemotherapy. Nature of the series: Clinical observations in cancer patients receiving conventional chemotherapy plus fatty acids. The class given is in vivo, human patients. As to conditions: patients receiving conventional chemotherapy and the fatty acid at the same time. The source says:
In many instances, the fatty acids have been given to patients who at that same time were receiving conventional chemotherapy for their cancer.

In series [2] the test system is cardiotoxicity of doxorubicin. As to the kind of experiment: Cardiotoxicity of doxorubicin in mice pre-treated with fatty acids. The following applies: 20 mg doxorubicin intraperitoneally, fatty acid pre-treatment. The class given is in vivo.
The test system of series [3] is streptozotocin damage to the islet cells of the pancreas. Nature of the series: Streptozotocin-induced diabetes in rats. It counts as in vivo. As to conditions: fatty acid administered prior to streptozotocin. The source says: In a third animal study, the anti-cancer streptozotocin was used. A major effect of this compound is to damage the islet cells of the pancreas and consequently to lead to insulin dependent diabetes.

Series [4] relates to lung toxicity of bleomycin. As to the kind of experiment: Lung toxicity (fibrosis) of intratracheal bleomycin in animals. It counts as in vivo. As to conditions: bleomycin into the trachea, about 5-10 IU per kg body weight, 2-4 weeks. How it is done: We have recently supported the clinical observations by animal studies on the cardiotoxicity of doxorubicin and the lung toxicity of bleomycin. When 20 mg of doxorubicin (DOX) is given intraperitoneally to mice, the animals usually die within two weeks because of cardiac damage. When animals were pre-treated with LA or with GLA or with EPA or with DHA in various doses and chemical forms, the death rate to the same dose of doxorubicin was reduced to between 20% and 60% depending on the dose and the precise chemical administered. […] Similarly, bleomycin introduced into the trachea of animals under anaesthesia at a dose of about 5-10 IU per kg body weight, within 2-4 weeks the animals develop severe lung fibrosis which is very similar to the fibrosis which occurs in human patients treated with bleomycin. […] In a third animal study, the anti-cancer streptozotocin was used. A major effect of this compound is to damage the islet cells of the pancreas and consequently to lead to insulin dependent diabetes.

For series [5], the system named is side effects of chemotherapy. As to the kind of experiment: Case histories of patients given fatty acid derivatives with chemotherapy. The class given is in vivo, human patients. The source says:
The following histories illustrate use of the invention
This chemotherapy regime normally causes severe vomiting and nausea, marked malaise and anorexia.
C. […] The chemotherapy regime normally causes nausea, vomiting, mucositis and white cell suppression.
This normally causes nausea, vomiting, white cell suppression and mucositis.

The mark [6] stands for this setting: case C, breast cancer, 'CMF' regime, 30 g cumulative intravenously, then 2 g/day oral.
Setting [7] is: case D, metastatic colon cancer, 5-fluorouracil, 3 g/day from two weeks before and during chemotherapy.

As for `CC/C=C\C/C=C\C/C=C\C/C=C\C/C=C\C/C=C\CCC(=O)O` [DHA, docosahexaenoic acid], the “toxic side effects of chemotherapy” value in series [1] is reported as “substantially reduced”.

`CC/C=C\C/C=C\C/C=C\C/C=C\C/C=C\CCCC(=O)O` [EPA, eicosapentaenoic acid]: the “toxic side effects of chemotherapy” value in series [1] is “substantially reduced”.

With `CCCCC/C=C\C/C=C\C/C=C\CCCCC(=O)O` [GLA, gamma-linolenic acid], the “toxic side effects of chemotherapy” value in series [1] is “substantially reduced”. Also, the “reduction in cardiac weight characteristic of doxorubicin toxicity” value in series [2] is “considerably attenuated”. Moreover, in series [3], the “likelihood of the development of diabetes” value is reported as “greatly reduced”. For the same molecule, the “lung pathological changes and increased production of fibrous tissue” value in series [4] is “almost entirely suppress”.

For `CCCCC/C=C\C/C=C\CCCCCCCC(=O)O` [LA, linoleic acid], the “toxic side effects of chemotherapy” value in series [1] is recorded as “substantially reduced”. The “reduction in cardiac weight characteristic of doxorubicin toxicity” value in series [2] is on record as “considerably attenuated”. In series [3], the “likelihood of the development of diabetes” value was “greatly reduced”. For the same molecule, the “lung pathological changes and increased production of fibrous tissue” value in series [4] is given as “almost entirely suppress”.

With `CCCCC/C=C\C/C=C\C/C=C\CCCCC(=O)[O-].[Li+]` [lithium salt of gammalinolenic acid], the general well-being entry in series [5] (case B, Hodgkin's disease, 'MOPP' regime, 3 g per day orally) is “remained well and able to continue working”. In addition, the nausea result in series [5] (case B, Hodgkin's disease, 'MOPP' regime, 3 g per day orally from one week before and throughout chemotherapy) is “only mild nausea”. For the same molecule, in series [5] (setting [6]), the nausea entry is “only mild nausea”, the “suppression of the white cell count” value is reported as “less than expected” and the vomiting or mucositis result is recorded as “no vomiting or mucositis”.

As to `CC/C=C\C/C=C\C/C=C\C/C=C\C/C=C\CCCC(=O)OCC(COC(=O)CCC/C=C\C/C=C\C/C=C\C/C=C\C/C=C\CC)OC(=O)CCC/C=C\C/C=C\C/C=C\C/C=C\C/C=C\CC` [triglyceride of eicosapentaenoic acid], in series [5] (setting [7]), the “nausea and white cell suppression” value is recorded as “less than expected”; the vomiting or mucositis result is recorded as “no vomiting or mucositis”.

As to “dilinoleoyl-monogammalinolenoyl-glycerol [DLMG]”, the general well-being result in series [5] (case A, glioblastoma patient, carmustine) is recorded as “felt well throughout”. For the same molecule, in series [5] (case A, glioblastoma patient, carmustine, given prior to and during the course), the nausea result is “only very mild nausea”.
